Assay [1] addresses T1, BRD4 bromo domain 2 [BRD4(2)] (Homo sapiens, UniProt O60885).
T1 construct: N-terminally His6-tagged BRD4(2) (amino acids 357-445); made in house; host or cells: E. coli
Nature of the assay: BRD4(2)/acetylated peptide H4 binding assay (TR-FRET). The following applies: inhibition of interaction between His6-tagged BRD4(2) (amino acids 357-445) and acetylated histone H4 peptide. Summed up: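 Compounds (0.1 nM to 20 μM, 11 points, duplicates) preincubated 10 min at 22 °C with 100 nM His6-tagged BRD4(2) residues 357-445, then Ac-H4-biotin peptide added; incubated 1 h at 22 °C and 3 h-overnight at 4 °C. Eu/XL665 emission ratio normalised to DMSO and no-protein controls; 4-parameter IC50.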
In general terms: TR-FRET usually uses a lanthanide donor and a delayed reading to cut background.

Assay [2] has as its target T2, BRD4 bromo domain 1 [BRD4(1)] (Homo sapiens, UniProt O60885).
T2 construct: N-terminally His6-tagged BRD4(1) (amino acids 67-152); made in house; host or cells: E. coli
Nature of the assay: BRD4(1)/acetylated peptide H4 binding assay (TR-FRET). The following applies: inhibition of interaction between His6-tagged BRD4(1) (amino acids 67-152) and acetylated histone H4 peptide. The method, boiled down: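 IC50 came from a 4-parameter fit of the 665/620 nm emission ratio, normalised to DMSO and no-protein controls. His6-tagged BRD4(1) residues 67-152 (typically 10 nM final) was preincubated 10 min with compound (0.1 nM to 20 μM, duplicates), then exposed to Ac-H4-biotin peptide at 22 °C for 1 h and 4 °C for at least 3 h.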

The subject of a further assay is MOLM-13 cell line. Nature of the assay: MOLM-13 cell proliferation assay (alamarBlue). The class given is cell-based. Conditions: Homo sapiens, inhibition of proliferation of MOLM-13 cells (acute myeloid leukaemia), 96 hours incubation. Summed up: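 MOLM-13 (human AML) cells were treated with compound dilutions for 96 h at 37 °C after overnight plating, and viability was read by alamarBlue fluorescence (ex 530/em 590 nm). Pre-treatment readings were subtracted from end-point readings, and IC50 was calculated relative to buffer-only controls.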
For orientation: Alamar Blue is a resazurin reagent that responds to reducing activity.

The IC50 is the concentration needed to halve the response being measured.

`CC(C)N1c2nc(Nc3ccc(S(=O)(=O)N(C)C)cc3)ccc2N(C)C(=O)[C@H]1C` [Example 100, 4-{[(3R)-1,3-Dimethyl-2-oxo-4-(propan-2-yl)-1,2,3,4-tetrahydropyrido[2,3-b]pyrazin-6-yl]amino}-N,N-dimethylbenzenesulphon-amide]: the IC50 in assay [1] was 71 nM; in assay [2], 156 nM; with MOLM-13 cell line, 336 nM.

As to `C[C@@H]1C(=O)N(C)c2ccc(Nc3ccc(S(=O)(=O)NCCN4CCN(C)CC4)cc3)nc2N1C1CCOCC1` [Example 23, 4-{[(3R)-1,3-dimethyl-2-oxo-4-(tetrahydro-2H-pyran-4-yl)-1,2,3,4-tetrahydropyrido[2,3-b]pyrazin-6-yl]amino}-N-[2-(4-methylpiperazin-1-yl)ethyl]benzene-sulponamide], the IC50 in assay [1] was found to be 65 nM; in assay [2], 46 nM; in the assay with MOLM-13 cell line, 358 nM.

For `COc1cc(C(=O)N[C@H]2CC[C@H](N3CCN(CC4CC4)CC3)CC2)ccc1Nc1ccc2c(n1)N(C1CCCCC1)[C@H](C)C(=O)N2C` [Example 70, 4-{[(3R)-4-Cyclohexyl-1,3-dimethyl-2-oxo-1,2,3,4-tetrahydropyrido[2,3-b]pyrazin-6-yl]amino}-N-{trans-4-[4-(cyclopropylmethyl)piperazin-1-yl]cyclohexyl}-3-methoxybenzamide], the IC50 in assay [1] amounted to 120 nM; in assay [2], 239 nM; in the assay on MOLM-13 cell line, 233 nM.

Turning to `COc1cc(C(=O)NCCN2CCN(C)CC2)ccc1Nc1ccc2c(n1)N(C1CCCCC1)[C@H](C)C(=O)N2C` [Example 67, 4-{[(3R)-4-Cyclohexyl-1,3-dimethyl-2-oxo-1,2,3,4-tetrahydropyrido[2,3-b]pyrazin-6-yl]amino}-3-methoxy-N-[2-(4-methylpiperazin-1-yl)ethyl]benzamide], the IC50 in assay [1] was 110 nM; in assay [2] it was 178 nM; in the assay with MOLM-13 cell line, 265 nM.

Regarding `COc1cc(C(=O)NC2CN(C)C2)ccc1Nc1ccc2c(n1)N(C1CCOCC1)[C@H](C)C(=O)N2C` [Example 55, 4-{[(3R)-1,3-Dimethyl-2-oxo-4-(tetrahydro-2H-pyran-4-yl)-1,2,3,4-tetrahydropyrido[2,3-b]pyrazin-6-yl]amino}-3-methoxy-N-(1-methylazetidin-3-yl)benzamide], the IC50 in assay [1] is 128 nM; in assay [2], 215 nM; in the assay with MOLM-13 cell line it was 668 nM.

Take `COc1cc(C(=O)NCCN2CCOCC2)ccc1Nc1ccc2c(n1)N(C(C)C)[C@H](C)C(=O)N2C` [Example 3, 4-{[(3R)-1,3-Dimethyl-2-oxo-4-(propan-2-yl)-1,2,3,4-tetrahydropyrido[2,3-b]pyrazin-6-yl]amino}-3-methoxy-N-[2-(morpholin-4-yl)ethyl]benzamide]: the IC50 in assay [1] worked out at 472 nM; in assay [2], 131 nM; in the assay with MOLM-13 cell line, 630 nM.

`C[C@@H]1C(=O)N(C)c2ccc(Nc3ccc(S(=O)(=O)N4CCN(C)CC4)cc3)nc2N1C1CCOCC1` [Example 20, (3R)-1,3-dimethyl-6-({4-[(4-methylpiperazin-1-yl)sulphonyl]phenyl}amino)-4-(tetrahydro-2H-pyran-4-yl)-3,4-dihydropyrido[2,3-b]pyrazin-2(1H)-one]: the figures for the IC50 (in assay [1]; in assay [2]; in the assay on MOLM-13 cell line) were 96 nM, 154 nM and 445 nM, respectively.

`COc1cc(C(=O)N2CCC(N3CCCCC3)CC2)ccc1Nc1ccc2c(n1)N(C1CCOCC1)[C@H](C)C(=O)N2C` [Example 53, (3R)-6-{[4-(1,4′-Bipiperidin-1′-ylcarbonyl)-2-methoxyphenyl]amino}-1,3-dimethyl-4-(tetrahydro-2H-pyran-4-yl)-3,4-dihydropyrido[2,3-b]pyrazin-2(1H)-one]: the IC50 was found to be 94 nM in assay [1], 90 nM in assay [2] and 249 nM with MOLM-13 cell line.

Consider `COc1cc(C(=O)NCCc2cccnc2)ccc1Nc1ccc2c(n1)N(C1CCOCC1)[C@H](C)C(=O)N2C` [Example 61, 4-{[(3R)-1,3-Dimethyl-2-oxo-4-(tetrahydro-2H-pyran-4-yl)-1,2,3,4-tetrahydropyrido[2,3-b]pyrazin-6-yl]amino}-3-methoxy-N-[2-(pyridin-3-yl)ethyl]benzamide], for which the IC50 in assay [1] is 110 nM; in assay [2] it was 172 nM; in the assay with MOLM-13 cell line, 407 nM.

In the case of `C[C@@H]1C(=O)N(C)c2ccc(Nc3ccc(C(=O)NC4CCN(C)CC4)cc3)nc2N1C1CCCC1` [Example 11, 4-{[(3R)-4-Cyclopentyl-1,3-dimethyl-2-oxo-1,2,3,4-tetrahydropyrido[2,3-b]pyrazin-6-yl]amino}-N-(1-methylpiperidin-4-yl)benzamide], the IC50 in assay [1] was determined as 83 nM; in assay [2], 63 nM; with MOLM-13 cell line, 444 nM.

Consider `C[C@@H]1C(=O)N(C)c2ccc(Nc3ccc(C(=O)NCCN4CCN(C)CC4)cc3)nc2N1Cc1ccccc1` [Example 81, 4-{[(3R)-4-Benzyl-1,3-dimethyl-2-oxo-1,2,3,4-tetrahydropyrido[2,3-b]pyrazin-6-yl]amino}-N-[2-(4-methylpiperazin-1-yl)ethyl]benzamide], for which the IC50 is 23 nM in assay [1], 89 nM in assay [2] and 96 nM with MOLM-13 cell line.

As for `COc1cc(C(=O)NCCN2CCN(C)CC2)ccc1Nc1ccc2c(n1)N(C1CCOCC1)[C@H](C)C(=O)N2C` [Example 64, 4-{[(3R)-1,3-Dimethyl-2-oxo-4-(tetrahydro-2H-pyran-4-yl)-1,2,3,4-tetrahydropyrido[2,3-b]pyrazin-6-yl]amino}-3-methoxy-N-[2-(4-methylpiperazin-1-yl)ethyl]benzamide], the results for the IC50 (in assay [1]; in assay [2]; with MOLM-13 cell line) were 81 nM, 179 nM and 310 nM, respectively.

As to `C[C@@H]1C(=O)N(C)c2ccc(Nc3ccc(S(=O)(=O)N[C@H]4CC[C@H](N5CCN(CC6CC6)CC5)CC4)cc3)nc2N1C1CCOCC1` [Example 15, N-{trans-4-[4-(Cyclopropylmethyl)piperazin-1-yl]cyclohexyl}-4-{[(3R)-1,3-dimethyl-2-oxo-4-(tetrahydro-2H-pyran-4-yl)-1,2,3,4-tetrahydropyrido[2,3-b]pyrazin-6-yl]amino}benzenesulphonamide], the results for the IC50 (in assay [1]; in assay [2]; with MOLM-13 cell line) were 51 nM, 237 nM and 62 nM, respectively.

`COc1cc(Nc2ccc3c(n2)N(C2CCOCC2)[C@H](C)C(=O)N3C)ccc1S(=O)(=O)N1CCN(C)CC1` [Example 26, (3R)-6-({3-methoxy-4-[(4-methylpiperazin-1-yl)sulphonyl]phenyl}amino)-1,3-dimethyl-4-(tetrahydro-2H-pyran-4-yl)-3,4-dihydropyrido[2,3-b]pyrazin-2(1H)-one]: the IC50 in assay [1] was 67 nM; in assay [2], 70 nM; with MOLM-13 cell line, 296 nM.

Take `CC(=O)N1CCC(NC(=O)c2ccc(Nc3ccc4c(n3)N(Cc3ccccc3)[C@H](C)C(=O)N4C)cc2)CC1` [Example 78, N-(1-Acetylpiperidin-4-yl)-4-{[(3R)-4-benzyl-1,3-dimethyl-2-oxo-1,2,3,4-tetrahydropyrido[2,3-b]pyrazin-6-yl]amino}benzamide]: the values for the IC50 (in assay [1]; in assay [2]; in the assay with MOLM-13 cell line) were 111 nM, 153 nM and 243 nM, respectively.

As for `COc1cc(C(=O)NCCN2CCN(C(=O)OC(C)(C)C)CC2)ccc1Nc1ccc2c(n1)N(C(C)C)[C@H](C)C(=O)N2C` [Example 4, 1-tert-Butyl 4-{2-[(4-{[(3R)-1,3-dimethyl-2-oxo-4-(propan-2-yl)-1,2,3,4-tetrahydropyrido[2,3-b]pyrazin-6-yl]amino}-3-methoxybenzoyl)amino]ethyl}piperazinecarboxylate], the IC50 was 234 nM in assay [1], 374 nM in assay [2] and 1110 nM with MOLM-13 cell line.

As for `COc1cc(C(=O)NC2CCN(C)CC2)ccc1Nc1ccc2c(n1)N(C1CCCC1)[C@H](C)C(=O)N2C` [Example 1, 4-{[(3R)-4-Cyclopentyl-1,3-dimethyl-2-oxo-1,2,3,4-tetrahydropyrido[2,3-b]pyrazin-6-yl]amino}-3-methoxy-N-(1-methylpiperidin-4-yl)benzamide], the figures for the IC50 (in assay [1]; in assay [2]; in the assay with MOLM-13 cell line) were 138 nM, 260 nM and 176 nM, respectively.

Take `C[C@@H]1C(=O)N(C)c2ccc(Nc3ccc(S(=O)(=O)N(C)C)cc3)nc2N1C1CCOCC1` [Example 27, 4-{[(3R)-1,3-dimethyl-2-oxo-4-(tetrahydro-2H-pyran-4-yl)-1,2,3,4-tetrahydropyrido[2,3-b]pyrazin-6-yl]amino}-N,N-dimethylbenzene-sulphonamide]: the IC50 in assay [1] came to 38 nM; in assay [2] it was 32 nM; with MOLM-13 cell line, 202 nM.

Regarding `C[C@@H]1C(=O)N(C)c2ccc(Nc3ccc(C(=O)NCCN(C)C)cc3)nc2N1C1CCOCC1` [Example 48, N-[2-(Dimethylamino)ethyl]-4-{[(3R)-1,3-dimethyl-2-oxo-4-(tetrahydro-2H-pyran-4-yl)-1,2,3,4-tetrahydropyrido[2,3-b]pyrazin-6-yl]amino}benzamide], the IC50 is 167 nM in assay [1], 103 nM in assay [2] and 583 nM in the assay with MOLM-13 cell line.

These data come from patent US20160193206A1, “BET-PROTEIN-INHIBITING DIHYDROPYRIDOPYRAZINONES” (BAYER PHARMA AKTIENGESELLSCHAFT, priority 2012, published 2016).
